This is an account of results in patent US10071987B2, “Aminomethylene pyrazolones with therapeutic activity” (Compound Handling B.V., priority 2012, dated 2018).

Each structure is given as a SMILES string. Several values for one entry are separate records, joined by “and”; a condition that tells them apart may be missing. Equal values may be shown once.

The inhibition is the relative decrease from the control value, in per cent.

The test system of one experiment is PC3 cells. In words: Cell invasion assay (BD Biocoat Matrigel Invasion chambers, CellTiter-GLO readout). Format: cell-based, human. The note with it: Homo sapiens, PC-3, PC3 cells incubated with compound (10 μM) for 4 days prior to assay; 48 hours invasion; versus DMSO treated cells; several values = repeated assays. From the text:
For determining the effectiveness of the compounds according to the invention, a model assay based on the migration of cells in a migration chamber was employed. This model is accepted in the art as providing representative data on the ability of cells to metastasize.
The PC-3 prostate cancer cell line (ATCC# CRL-1435) was maintained in RPMI-1640 medium (Invitrogen, 31870), supplemented with 10% Fetal Bovine Serum (Sigma, F7524), L-Glutamine (Invitrogen 25030-024). Cells were split once a week at a 1:10 ratio.
For cell invasion assays, PC3 cells were incubated in the presence of a compound according to the invention (10 μM) for 4 days, prior to the invasion assay. Forty thousand cells were seeded into BD Biocoat Matrigel Invasion chambers (8 micron; BD 354480) in serum-free medium. The invasion chamber was placed in a 24-well containing medium with 10% fetal calf serum as chemo-attractant. As a control, the same amount of cells was seeded in 24-well culture plates. After 48 hours incubation, cells in the invasion chamber were removed by aspiration and cleaning the inner compartment with a cotton swab. The invasion chamber was then put into CellTiter-GLO (CTG, Promega-G7571) cell viability reagent, incubated for 15 minutes, and then analyzed on a Victor3 luminometer. Cell invasion was calculated as the CTG activity on the lower part of the membrane divided by the CTG activity of the cells grown in a 24 well plate. Inhibition of cell invasion by a specific compound was estimated by comparing the amount of cell invasion of compound-treated cells versus DMSO treated cells.
Background: Cellular ATP, detected with luciferase, serves as a proxy for viable cell number.
For `N/C=C1/C(=O)N(c2nc3ccccc3s2)N=C1c1ccccc1`, the inhibition at 10 µM was determined as 52%. The same measure, in the same setting: for `COc1ccc(CN/C=C2/C(=O)N(c3nc4ccccc4s3)N=C2c2ccccc2)cc1` the value was 35%. For the compound `N/C=C1/C(=O)N(c2nc3ccccc3s2)N=C1c1cccc(Cl)c1`, the inhibition at 10 µM worked out at 91%. On the same count and under the same terms, for `N/C=C1/C(=O)N(c2nc3ccc(Cl)cc3s2)N=C1c1ccccc1` the value was 89%. Take `CC1=NN(c2nc3ccccc3s2)C(=O)/C1=C/N1CCCCC1`: the inhibition at 10 µM amounted to 88%. As to `N/C=C1/C(=O)N(c2nc3ccccc3s2)N=C1c1cccc(Br)c1`, the inhibition at 10 µM worked out at 87%.

On to `N/C=C1/C(=O)N(c2nc3ccccc3s2)N=C1c1cccc(I)c1`, for which the inhibition at 10 µM is 86%.

On to `N/C=C1/C(=O)N(c2nc3ccccc3s2)N=C1c1cc2ccccc2s1`, for which the inhibition at 10 µM was 76%. On the same count and under the same terms, for `CN/C=C1/C(=O)N(c2nc3ccccc3s2)N=C1c1cccs1` the value was 75%; for `N/C=C1/C(=O)N(c2nc3ccc([N+](=O)[O-])cc3s2)N=C1c1cccc(C(F)(F)F)c1`, 73%. Still for that read-out and setting: for `COc1ccc2nc(N3N=C(c4ccccc4)/C(=C\N)C3=O)sc2c1` the value was 70%; for `Cc1ccc2nc(N3N=C(c4cccc(C(F)(F)F)c4)/C(=C\N)C3=O)sc2c1`, 67%. Turning to `Cc1ccc(C2=NN(c3nc4ccccc4s3)C(=O)/C2=C/N)cc1Br`, the inhibition at 10 µM was found to be 57%. Take `N/C=C1/C(=O)N(c2nc3ccccc3s2)N=C1c1ccc(Br)s1`: the inhibition at 10 µM was found to be 57%. The same measure, in the same setting: for `C/C(NCc1ccc(Cl)c(Cl)c1)=C1\C(=O)N(c2nc3ccccc3s2)N=C1C(F)(F)F` the value was 56%; for `N/C=C1/C(=O)N(c2nc3ccccc3s2)N=C1c1cccc(C(F)(F)F)c1` [drawing 33], 91%.

The same experiment, now with this note: PC3 cells incubated with compound (10 μM) for 4 days prior to assay; 48 hours invasion; versus DMSO treated cells; several values = repeated assays; 10 µM.
`N/C=C1/C(=O)N(c2nc3ccccc3s2)N=C1c1ccccc1`: the “Results % inhibition of invasion in invasion assays” value is 49% and 45%. The same measure, in the same setting: for `N/C=C1/C(=O)N(c2nc3ccccc3s2)N=C1c1cccc(Br)c1` the value was 76%; for `N/C=C1/C(=O)N(c2nc3ccccc3s2)N=C1c1cccc(C(F)(F)F)c1` [drawing 36], 89% and 82% and 78%.

The subject of the next experiment is PC-3M-Pro4luc+ cells. The experiment in a line: Formation of de novo skeletal metastases in mice, whole body bioluminescence imaging. Format: in vivo. The note with it: treatment of mice. From the text: Treatment of mice with 4-[1-aminomethylidene]-2-benzothiazol-2-yl-5-phenyl-2,4-dihydro-pyrazol-3-one decreased the number of bone lesions and metastatic tumor burden. Cancer cells and tumor burden were monitored by whole body bioluminescence imaging. […] Such in vivo testing may lead to further selection, preference, deselection or disfavor of individual compounds for further programs for development of a compound for use in a prescription medicine. A particular compound of interest for such advanced testing is, 4-(aminomethylene)-2-(2-benzothiazolyl)-2,4-dihydro-5-(3-chlorophenyl)-3H-pyrazol-3-one.
Regarding `NC=C1C(=O)N(c2nc3ccccc3s2)N=C1c1ccccc1` [Example 2, 4-[1-Aminomethylidene]-2-benzothiazol-2-yl-5-phenyl-2,4-dihydro-pyrazol-3-one], the metastatic tumor burden result was “decreased” and the “number of bone lesions” value is given as “decreased”.
